Consider four compounds from patent US20110280940A1, “Di-Vanilloyl And Tri-Vanilloyl Derivatives For Use In Anti-Cancer Therapy” (priority 2008, published 2011).

In one experiment the target is T1, Aurora B kinase (Homo sapiens, UniProt Q96GD4).
T1 construct: made in house
The experiment in a line: Radiometric protein kinase assay (33 PanQinase), Aurora B. The class given is biochemical. As to conditions: for IC50: dose-response 0-100 μM, n=3, read-out: IC50: Concentration of drug needed in order to inhibit kinase activity by 50%, AurB; for inhibition at 57 µM: read-out: inhibition of Aurora B activity. As to the method: Note that at a concentration of 20 μM of the DLT compounds, the activity of the three Aurora kinases is reduced by approximately 40-50%, whereas at concentrations of 50 μM, i.e. the concentration used in the anti-proliferation assays of example 2B, the activity of said kinases is reduced by 60-75%.
The kinase inhibition profile of DLT95-Cl at 20 μM was determined using 255 protein kinases. Residual activity values were measured by testing each compound at one concentration in duplicate in each kinase assay. A radiometric protein kinase assay (33 PanQinase®Activity Assay) was used for measuring the kinase activity of 250 protein kinases. All kinase assays were performed in 96-well flashPlates™ from Perkin Elmer (Boston, Mass., USA) in a 50 μl reaction volume. The reaction cocktail was pipetted in 4 steps in the following order: • 10 μl of non-radioactive ATP solution (in H2O) • 25 μl of assay buffer/[γ-33P]-ATP mixture • 5 μl of test sample in 10% DMSO • 10 μl of enzyme/substrate mixture
(§1) The assay for all enzymes contained 60 mM HEPES-NaOH, pH 7.5, 3 mM MgCl2, 3 mM MnCl2, 3 μM Na-orthovanadate, 1.2 mM DTT, 50 μg/ml PEG20000, 1 μM ATP/[γ-33P]-ATP (approx. […] per well), protein kinase, and substrate. All PKC assays (except the PKC-mu and the PKC-nu assay) additionally contained 1 mM CaCl2, 4 mM EDTA, 5 μg/ml Phosphatidylserine and 1 μg/ml 1,2-Dioleyl-glycerol. The MYLK2, CAMK1D, CAMK2A, CAMK2B, CAMK2D, CAMK4, CAMKK2, DAPK2 and EEF2K assays additionally contained 1 μg/ml Calmodulin and 0.5 mM CaCl2. The PRKG1 and PRKG2 assays additionally contained 1 μM cGMP.
(§2) The protein kinases were expressed either in Sf9 insect cells or in E. coli as recombinant GST-fusion proteins or as His-tagged proteins. All kinases were produced from human cDNAs. Kinases were purified by affinity chromatography using either GSH-agarose (Sigma) or Ni-NTH-agarose (Qiagen). The purity of the protein kinases was examined by SDS-PAGE/coomassie staining. The identity of the protein kinases was checked by mass spectroscopy.
(§3) The reaction cocktails were incubated at 30° C. for 60 minutes. The reaction was stopped with 50 μl of 2% (v/v) H3PO4, plates were aspirated and washed two times with 200 μl 0.9% (w/v) NaCl. All assays were performed with a BeckmanCoulter Biomek 2000/SL robotic system.
(§4) Incorporation of ^33Pi (counting of “cpm”) was determined with a microplate scintillation counter (Microbeta, Wallac).
(§5) For each kinase, the median value of the cpm of three wells with complete reaction cocktails, but without kinase, was defined as “low control” […]. This value reflects unspecific binding of radioactivity to the plate in the absence of protein kinase but in the presence of the substrate. Additionally, for each kinase the median value of the cpm of three other wells with the complete reaction cocktail, but without any compound, was taken as the “high control”, i.e. full activity in the absence of any inhibitor […]. The difference between high and low control of was taken as 100% activity for each kinase. As part of the data evaluation the low control value of each kinase was subtracted from the high control value as well as from their corresponding “compound values”. The residual activity (in %) for each compound well was calculated by using the following formula: Res. Activity (%)=100×[(cpm of compound−low control)/(high control−low control)]

The target in a further experiment is T2, WEE1 kinase (Homo sapiens, UniProt P30291).
T2 construct: made in house
The experiment in a line: Radiometric protein kinase assay (33 PanQinase), WEE1. Format: biochemical. As to conditions: for IC50: dose-response 0-100 μM, n=3, read-out: IC50: Concentration of drug needed in order to inhibit kinase activity by 50%, WEE1; for inhibition at 57 µM: read-out: inhibition of WEE1 activity. As to the method:
A radiometric protein kinase assay (33 PanQinase®Activity Assay) was used for measuring the kinase activity of 250 protein kinases. All kinase assays were performed in 96-well flashPlates™ from Perkin Elmer (Boston, Mass., USA) in a 50 μl reaction volume. The reaction cocktail was pipetted in 4 steps in the following order: • 10 μl of non-radioactive ATP solution (in H2O) • 25 μl of assay buffer/[γ-33P]-ATP mixture • 5 μl of test sample in 10% DMSO • 10 μl of enzyme/substrate mixture
as §1, §2, §3, §4, §5

In a further experiment the test system is U373-MG glioma cell line. Nature of the experiment: Cellular imaging (quantitative videomicroscopy), global growth ratio, U373. Format: cell-based. As to conditions: Homo sapiens, 72 h, read-out: Global Grow Ratio Treated/Ct (GGR T/Ct) determined by Video Quantitative microscopy, U373.

Each structure is given as a SMILES string.

T2 sequence (P30291 whole entry): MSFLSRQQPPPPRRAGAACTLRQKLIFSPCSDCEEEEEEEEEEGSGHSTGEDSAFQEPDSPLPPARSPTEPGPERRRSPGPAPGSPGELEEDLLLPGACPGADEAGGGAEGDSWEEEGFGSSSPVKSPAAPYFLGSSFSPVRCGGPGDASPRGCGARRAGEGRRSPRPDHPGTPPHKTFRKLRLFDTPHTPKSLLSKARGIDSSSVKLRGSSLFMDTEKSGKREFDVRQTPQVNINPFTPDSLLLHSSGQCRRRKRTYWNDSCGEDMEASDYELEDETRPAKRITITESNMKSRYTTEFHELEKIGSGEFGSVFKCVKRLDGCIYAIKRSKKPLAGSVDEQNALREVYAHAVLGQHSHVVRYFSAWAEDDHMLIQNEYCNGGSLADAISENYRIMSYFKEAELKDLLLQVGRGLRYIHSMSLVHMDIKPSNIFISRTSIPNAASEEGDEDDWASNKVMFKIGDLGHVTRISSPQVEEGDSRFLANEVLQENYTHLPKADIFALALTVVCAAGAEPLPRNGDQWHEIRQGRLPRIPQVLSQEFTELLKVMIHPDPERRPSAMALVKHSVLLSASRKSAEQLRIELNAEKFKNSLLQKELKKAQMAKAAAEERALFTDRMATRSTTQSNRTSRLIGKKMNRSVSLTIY
T1 sequence (Q96GD4 whole entry): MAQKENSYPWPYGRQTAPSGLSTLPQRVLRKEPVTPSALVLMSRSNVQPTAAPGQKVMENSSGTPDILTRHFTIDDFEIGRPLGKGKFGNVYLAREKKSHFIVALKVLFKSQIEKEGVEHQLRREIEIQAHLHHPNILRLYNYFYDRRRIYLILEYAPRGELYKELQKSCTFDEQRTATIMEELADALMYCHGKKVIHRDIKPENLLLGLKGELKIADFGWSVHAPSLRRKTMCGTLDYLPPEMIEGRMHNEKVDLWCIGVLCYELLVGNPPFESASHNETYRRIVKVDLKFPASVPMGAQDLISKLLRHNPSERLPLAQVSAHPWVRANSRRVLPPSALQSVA

Consider `COc1cc(C(=O)OCc2cc(COC(=O)c3ccc(O)c(OC)c3)cc(COC(=O)c3ccc(O)c(OC)c3)c2)ccc1O` [DLT95, [3,5-bis[(4-hydroxy-3-methoxy-benzoyl)oxymethyl]phenyl]methyl 4-hydroxy-3-methoxy-benzoate], for which the IC50 on Aurora B kinase is 3.4 µM; at WEE1 kinase, more than 100 µM.
In general, inhibition refers to the drop in the measured response relative to a control, in per cent. Turning to `O=C(OCc1cc(COC(=O)c2ccc(O)c(Cl)c2)cc(COC(=O)c2ccc(O)c(Cl)c2)c1)c1ccc(O)c(Cl)c1` [DLT95-Cl, [3,5-bis[(4-hydroxy-3-chloro-benzoyl)oxymethyl]phenyl]methyl 4-hydroxy-3-chloro-benzoate], on Aurora B kinase, the IC50 amounted to 0.9 µM and the inhibition at 57 µM was not below 50%. For the same compound, on WEE1 kinase, the IC50 turned out to be 3.74 µM and the inhibition at 57 µM is not below 50%. Besides, in the experiment on U373-MG glioma cell line, the activity at 31 µM was 50%.
For `O=C(OCc1cc(COC(=O)c2ccc(O)c(F)c2)cc(COC(=O)c2ccc(O)c(F)c2)c1)c1ccc(O)c(F)c1` [DLT95-F, [3,5-bis[(4-hydroxy-3-fluoro-benzoyl)oxymethyl]phenyl]methyl 4-hydroxy-3-fluoro-benzoate], the IC50 at Aurora B kinase was found to be 2.4 µM; at WEE1 kinase, 7.12 µM. Further, the inhibition at 57 µM at Aurora B kinase and at WEE1 kinase was not below 50% each time. Moreover, in the experiment with U373-MG glioma cell line, the activity at 37 µM is 40%.
Consider `COc1cc(C(=O)O)ccc1O` [vanillic acid, reference compound], for which the IC50 on Aurora B kinase and on WEE1 kinase was more than 100 µM throughout.
